Data as given in EP0390558B1, “Aromatase inhibiting 4(5)-imidazoles” (ORION-YHTYMÄ OY, priority 1989, dated 1990).

Target: T1, Human aromatase enzyme (Homo sapiens, UniProt P11511)
T1 construct: The enzyme preparation was used without further purification; from tissue; host or cells: human placenta, microsomal fraction (100000 x g precipitate)
T1 sequence (P11511 1-503): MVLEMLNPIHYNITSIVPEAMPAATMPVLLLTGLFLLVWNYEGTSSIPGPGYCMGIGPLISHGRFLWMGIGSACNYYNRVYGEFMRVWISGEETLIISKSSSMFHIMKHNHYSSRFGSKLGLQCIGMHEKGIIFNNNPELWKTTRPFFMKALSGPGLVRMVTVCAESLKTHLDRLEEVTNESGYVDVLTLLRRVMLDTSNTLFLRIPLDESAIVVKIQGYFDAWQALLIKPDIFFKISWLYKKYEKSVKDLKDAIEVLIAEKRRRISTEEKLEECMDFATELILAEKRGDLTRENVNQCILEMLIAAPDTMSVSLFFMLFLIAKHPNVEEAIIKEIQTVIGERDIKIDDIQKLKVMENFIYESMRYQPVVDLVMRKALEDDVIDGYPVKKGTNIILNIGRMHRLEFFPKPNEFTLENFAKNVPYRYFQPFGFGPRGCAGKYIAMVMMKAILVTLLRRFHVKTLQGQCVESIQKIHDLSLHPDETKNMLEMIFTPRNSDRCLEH
Assay: In vitro aromatase inhibition assay (3H2O release from 1,2[3H]-androstene-3,17-dione)
Format: biochemical

SMILES	IC50
Cc1cc(C)cc(CCCCC(c2ccc(F)cc2)c2c[nH]cn2)c1 (centres unmarked) [Compound 5b, 4-[5-(3,5-dimethylphenyl)-1-(4-fluorophenyl)-pentyl]-1H-imidazole]	7.5 µM
c1ccc(CCC(c2ccccc2)c2cncn2Cc2ccccc2)cc1 (centres unmarked) [Compound 8b, 1-benzyl-5-(1,3-diphenylpropyl)-1H-imidazole]	30 µM
COc1cccc(CCCCC(c2ccc(F)cc2)c2c[nH]cn2)c1 (centres unmarked) [Compound 11b, 4-[1-(4-fluorophenyl)-5-(3-methoxyphenyl)pentyl]-1H-imidazole]	2.6 µM
COc1ccc(CCCCC(c2ccc(F)cc2)c2c[nH]cn2)cc1 (centres unmarked) [Compound 12b, 4-[1-(4-fluorophenyl)-5-(4-methoxyphenyl)pentyl]-1H-imidazole]	3 µM
Cc1cccc(C)c1CCCCC(c1ccc(F)cc1)c1c[nH]cn1 (centres unmarked) [Compound 13b, 4-[1-(4-fluorophenyl)-5-(2,6-dimethylphenyl)-pentyl]-1H-imidazole]	7.7 µM
